Experiments:
FLT3 kinase = target: T1, FLT3 kinase (Homo sapiens, UniProt P36888); experiment: FLT3 kinase assay (AlphaScreen); type: biochemical; details: read-out: Ranking of IC50 values, FLT3
T1 construct: purchased SignalChem
T1 sequence (P36888 27-993): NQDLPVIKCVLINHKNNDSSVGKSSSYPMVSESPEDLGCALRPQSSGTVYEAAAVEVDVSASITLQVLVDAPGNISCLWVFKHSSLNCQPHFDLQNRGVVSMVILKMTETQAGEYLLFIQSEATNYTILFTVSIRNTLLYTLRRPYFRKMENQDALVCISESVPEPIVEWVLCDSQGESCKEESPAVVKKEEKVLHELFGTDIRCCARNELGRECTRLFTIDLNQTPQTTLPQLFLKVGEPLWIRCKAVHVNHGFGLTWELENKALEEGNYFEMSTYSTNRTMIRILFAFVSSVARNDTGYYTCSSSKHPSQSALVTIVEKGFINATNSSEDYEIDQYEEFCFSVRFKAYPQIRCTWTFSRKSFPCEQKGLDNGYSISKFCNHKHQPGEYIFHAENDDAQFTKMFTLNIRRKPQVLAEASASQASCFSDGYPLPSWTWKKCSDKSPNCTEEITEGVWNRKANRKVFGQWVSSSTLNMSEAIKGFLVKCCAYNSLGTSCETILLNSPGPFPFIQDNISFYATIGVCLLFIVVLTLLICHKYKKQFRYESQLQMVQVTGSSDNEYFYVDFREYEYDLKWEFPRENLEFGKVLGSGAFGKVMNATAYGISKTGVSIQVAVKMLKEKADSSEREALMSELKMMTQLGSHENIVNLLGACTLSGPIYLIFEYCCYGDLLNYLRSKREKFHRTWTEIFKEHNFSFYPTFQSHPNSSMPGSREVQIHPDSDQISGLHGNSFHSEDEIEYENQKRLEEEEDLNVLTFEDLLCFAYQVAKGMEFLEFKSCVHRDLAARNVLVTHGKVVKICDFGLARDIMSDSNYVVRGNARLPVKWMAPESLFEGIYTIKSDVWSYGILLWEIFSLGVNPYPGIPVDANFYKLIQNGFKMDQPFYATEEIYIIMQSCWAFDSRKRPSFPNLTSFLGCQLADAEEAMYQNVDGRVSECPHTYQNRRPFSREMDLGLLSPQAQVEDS
How it was run: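 Recombinant FLT3 (1.5 ng) phosphorylated biotinylated poly(Glu4:Tyr1) with 10 μM ATP in MOPS pH 7.0 buffer containing 10 mM MgCl2, 30 min at 30 °C, stopped with EDTA. Product detected by AlphaScreen; IC50 from duplicate serial dilutions.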

[1] = system: phosphorylation of FLT3 and its down-stream effector STAT5; experiment: Western blotting of p-FLT3 and p-STAT5 in MV4-11 cells; type: cell-based; details: Homo sapiens; at 30 nM treatment, 3 hours, FLT3-ITD positive MV4-11 leukemia cells; read-out: inhibition activity against phosphorylation of FLT3 and its down-stream effector STAT5
Method: The potent compounds of formula (I) in EXAMPLE 2 were evaluated, by western blotting assay, for their cellular potencies against phosphorylation of FLT3 and its down-stream effector STAT5 in MV4-11 leukemia cell line with constitutive activation of FLT3 signaling. For western blotting experiments, MV4-11 cells were cultured in IMDM medium containing 0.1% FBS overnight. On the assay day, three million cells were treated with or without compounds for 3 hours in 15 mL tubes. Then, the whole cell lysates were harvested, following extraction by adding 2×SDS Sample Buffer and boiling on hot plate at 105° C. for 15 minutes. The resulting cell lysates were separated by SDS-PAGE electrophoresis and transferred to PVDF membrane. Protein expression was detected using immunoblot with corresponding primary antibody and secondary antibody following the standard procedures. Antibody against p-FLT3 (Tyr-591), anti-rabbit IgG HRP-linked secondary antibody, and anti-mouse IgG HRP-linked secondary antibody were purchased from Cell Signaling Technology. Antibody against p-STAT5 (Tyr-694) was purchased from BD biosciences. Antibody against actin was purchased from R&D system. […] Band intensities of western blot were also quantified by ChemiDoc™ MP Imaging System. Relative intensities of bandscorresponding to drug treatments at a single concentration (30 nM) were compared to the DMSO control group. The percentage (%) inhibition at each drug concentration was calculated using the formula: Percentage(%)inhibition=(1−Relative intensity)×100.

PDGFRα kinase = target: T2, PDGFRα kinase (Homo sapiens, UniProt P16234); experiment: PDGFRα kinase assay (AlphaScreen); type: biochemical; details: read-out: Ranking of IC50 values, PDGFRα
T2 construct: purchased SignalChem
T2 sequence (P16234 24-1089): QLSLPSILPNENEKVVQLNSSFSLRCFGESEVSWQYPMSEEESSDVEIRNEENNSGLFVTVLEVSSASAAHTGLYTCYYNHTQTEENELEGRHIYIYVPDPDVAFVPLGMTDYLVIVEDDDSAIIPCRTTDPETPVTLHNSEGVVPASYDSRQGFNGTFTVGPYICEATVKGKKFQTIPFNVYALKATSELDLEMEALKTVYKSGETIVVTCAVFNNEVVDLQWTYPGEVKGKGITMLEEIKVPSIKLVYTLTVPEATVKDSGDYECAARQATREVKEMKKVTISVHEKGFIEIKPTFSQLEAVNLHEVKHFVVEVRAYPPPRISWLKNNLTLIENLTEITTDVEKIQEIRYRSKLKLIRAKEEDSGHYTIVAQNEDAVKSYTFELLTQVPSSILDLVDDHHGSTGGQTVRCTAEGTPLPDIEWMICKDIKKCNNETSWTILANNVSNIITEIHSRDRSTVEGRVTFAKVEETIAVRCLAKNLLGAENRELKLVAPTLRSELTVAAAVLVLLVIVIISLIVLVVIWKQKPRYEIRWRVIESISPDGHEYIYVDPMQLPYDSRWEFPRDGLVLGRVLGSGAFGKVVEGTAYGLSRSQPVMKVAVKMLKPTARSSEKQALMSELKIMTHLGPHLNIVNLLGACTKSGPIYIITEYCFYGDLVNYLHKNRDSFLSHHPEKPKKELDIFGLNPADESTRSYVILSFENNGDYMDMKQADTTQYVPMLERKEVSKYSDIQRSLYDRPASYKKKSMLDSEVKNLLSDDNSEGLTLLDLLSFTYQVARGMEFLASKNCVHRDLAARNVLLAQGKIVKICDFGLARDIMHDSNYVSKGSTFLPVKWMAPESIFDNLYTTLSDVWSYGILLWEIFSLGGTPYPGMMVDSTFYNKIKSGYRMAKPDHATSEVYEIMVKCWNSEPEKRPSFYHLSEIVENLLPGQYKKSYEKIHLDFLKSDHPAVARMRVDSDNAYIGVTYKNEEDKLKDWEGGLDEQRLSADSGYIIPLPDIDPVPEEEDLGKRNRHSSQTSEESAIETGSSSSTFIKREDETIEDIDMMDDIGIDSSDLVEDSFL
Method: Inhibition of PDGFRα kinase activity by a test compound disclosed herein was estimated by AlphaScreen (PerkinElmer). Standard assay conditions were 1.5 ng of recombinant PDGFRα kinase (SignalChem) with 6 ng Biotin-conjugated Poly-(Glu 4: Tyr 1) (Cisbio) in the assay buffer (10 μM ATP, 10 mM MOPs, pH 7.0, 0.21 mM EDTA, 0.5% glycerol, 1 mg/mL BSA, 0.01% 2-mercaptoethanol, 0.001% Brij35, 10 mM MgCl2) in a final volume of 25 μL. Reactions were incubated at 30° C. for 30 min and stopped by adding […] of 50 mM EDTA. Analysis of resulting product using an AlphaScreen kit and counted with Enspire Alpha (PerkinElmer). […] The IC50 values of inhibitors were determined after carrying out assays with each compound at serially diluted concentrations in duplication. The results were analyzed using linear regression software (GraphPad Prism 5; GraphPad Software Inc.)

Structure (SMILES) | IC50 (FLT3 kinase) [nM] | inhibition at 0.03 µM [1] [%] | IC50 (PDGFRα kinase) [nM]
Cn1ncc2ccc(-c3n[nH]c4c3Cc3sc(-c5ccc(CN6CCOCC6)nc5)cc3-4)cc21 [Compound 10, 4-((5-(3-(1-methyl-1H-indazol-6-yl)-1,4-dihydro-thieno[2′,3′:4,5]cyclopenta [1,2-c]pyrazol-6-yl)pyridin-2-yl)methyl)morpholine] | < 1 | > 50 | 1 to 10
C[C@@H]1CN(Cc2cccc(-c3cc4c(s3)Cc3c(-c5ccc6cnn(C)c6c5)n[nH]c3-4)c2)C[C@H](C)O1 [Compound 12, (2S,6R)-2,6-dimethyl-4-(3-(3-(1-methyl-1H-indazol-6-yl)-1,4-dihydrothieno [2′,3′:4,5]cyclopenta[1,2-c]pyrazol-6-yl)benzyl) morpholine] | 1 to 10 | > 50 | 30 to 100
Cn1ncc2ccc(-c3n[nH]c4c3Cc3sc(-c5cccc(CN6CCOCC6)c5)cc3-4)cc21 [Compound 13, 4-(3-(3-(1-methyl-1H-indazol-6-yl)-1,4-dihydro-thieno[2′,3′:4,5]cyclopenta [1,2-c]pyrazol-6-yl)benzyl) morpholine] | 1 to 10 | > 50 | 10 to 30
CN1CCN(C(=O)c2ccc(-c3cc4c(s3)Cc3c(-c5ccc6cnn(C)c6c5)n[nH]c3-4)cc2)CC1 [Compound 15, (4-(3-(1-methyl-1H-indazol-6-yl)-1,4-dihydrothieno[2′,3′:4,5]cyclopenta[1,2-c]pyrazol-6-yl)phenyl)(4-methyl-piperazin-1-yl)methanone] | < 1 | > 50 | 1 to 10
C[C@@H]1CN(Cc2ccc(-c3cc4c(s3)Cc3c(-c5ccc6cn[nH]c6c5)n[nH]c3-4)cn2)C[C@H](C)O1 [Compound 16, (2R,6S)-4-((5-(3-(1H-indazol-6-yl)-1,4-dihydro-thieno[2′,3′:4,5]cyclopenta [1,2-c]pyrazol-6-yl)pyridin-2-yl)methyl)-2,6-dimethylmorpholine] | < 1 | > 50 | 1 to 10
Cc1cc(-c2cc3c(s2)Cc2c(-c4ccc5cnn(C)c5c4)n[nH]c2-3)ccn1 [Compound 17, 3-(1-methyl-1H-indazol-6-yl)-6-(2-methylpyridin-4-yl)-1,4-dihydrothieno [2′,3′:4,5]cyclopenta[1,2-c] pyrazole] | 1 to 10 | > 50 | 10 to 30
c1cc(CN2CCOCC2)ncc1-c1cc2c(s1)Cc1c(-c3ccc4cn[nH]c4c3)n[nH]c1-2 [Compound 18, 4-((5-(3-(1H-indazol-6-yl)-1,4-dihydrothieno[2′,3′:4,5]cyclopenta[1,2-c]pyrazol-6-yl)pyridin-2-yl)methyl) morpholine] | < 1 | > 50 | 1 to 10
C[C@@H]1CN(C(=O)c2ccc(-c3cc4c(s3)Cc3c(-c5ccc6cnn(C)c6c5)n[nH]c3-4)cc2)C[C@H](C)O1 [Compound 19, ((2S,6R)-2,6-dimethyl-morpholino)(4-(3-(1-methyl-1H-indazol-6-yl)-1,4-dihydrothieno[2′,3′:4,5]cyclopenta[1,2-c]pyrazol-6-yl)phenyl)methanone] | 1 to 10 | > 50 | 1 to 10
CC(c1ccc(-c2cc3c(s2)Cc2c(-c4ccc5cnn(C)c5c4)n[nH]c2-3)cc1)N1CCOCC1 (stereo not drawn) [Compound 20, 4-(1-(4-(3-(1-methyl-1H-indazol-6-yl)-1,4-dihydro-thieno[2′,3′:4,5]cyclopenta [1,2-c]pyrazol-6-yl)phenyl)ethyl)morpholine] | 1 to 10 | > 50 | 1 to 10
Cn1ncc2ccc(-c3n[nH]c4c3Cc3sc(-c5ccc(C(=O)N6CCOCC6)cc5)cc3-4)cc21 [Compound 21, (4-(3-(1-methyl-1H-indazol-6-yl)-1,4-dihydro-thieno[2′,3′:4,5]cyclopenta [1,2-c]pyrazol-6-yl)phenyl) (morpholino)methanone] | < 1 | > 50 | 1 to 10
Cn1ncc2ccc(-c3n[nH]c4c3Cc3sc(-c5ccc(CCN6CCOCC6)cc5)cc3-4)cc21 [Compound 22, 4-(4-(3-(1-methyl-1H-indazol-6-yl)-1,4-dihydro-thieno[2′,3′:4,5]cyclopenta [1,2-c]pyrazol-6-yl)phenethyl)morpholine] | < 1 | > 50 | 10 to 30
Cn1ncc2ccc(-c3n[nH]c4c3Cc3sc(-c5ccc(C(=O)N6CCOCC6)nc5)cc3-4)cc21 [Compound 23, (5-(3-(1-methyl-1H-indazol-6-yl)-1,4-dihydro-thieno[2′,3′:4,5]cyclopenta [1,2-c]pyrazol-6-yl)pyridin-2-yl)(morpholino) methanone] | < 1 | > 50 | 1 to 10
COc1cc(-c2cc3c(s2)Cc2c(-c4ccc5cnn(C)c5c4)n[nH]c2-3)ccc1CN1CCOCC1 [Compound 24, 4-(2-methoxy-4-(3-(1-methyl-1H-indazol-6-yl)-1,4-dihydrothieno[2′,3′:4,5]cyclopenta[1,2-c]pyrazol-6-yl)benzyl)morpholine] | < 1 | > 50 | 1 to 10
Cn1ncc2ccc(-c3n[nH]c4c3Cc3sc(-c5ccc(CN6CCOCC6)c(F)c5)cc3-4)cc21 [Compound 25, 4-(2-fluoro-4-(3-(1-methyl-1H-indazol-6-yl)-1,4-dihydrothieno[2′,3′:4,5]cyclopenta[1,2-c]pyrazol-6-yl)benzyl)morpholine] | 1 to 10 | > 50 | 1 to 10
CCC(c1ccc(-c2cc3c(s2)Cc2c(-c4ccc5cnn(C)c5c4)n[nH]c2-3)cc1)N1CCOCC1 (stereo not drawn) [Compound 28, 4-(1-(4-(3-(1-methyl-1H-indazol-6-yl)-1,4-dihydro-thieno[2′,3′:4,5]cyclopenta [1,2-c]pyrazol-6-yl)phenyl)propyl)morpholine] | 1 to 10 | > 50 | 10 to 30
COc1cc(CN2CCOCC2)ccc1-c1cc2c(s1)Cc1c(-c3ccc4cnn(C)c4c3)n[nH]c1-2 [Compound 29, 4-(3-methoxy-4-(3-(1-methyl-1H-indazol-6-yl)-1,4-dihydrothieno [2′,3′:4,5]cyclopenta[1,2-c]pyrazol-6-yl)benzyl) morpholine] | < 1 | > 50 | 10 to 30
Cn1ncc2ccc(-c3n[nH]c4c3Cc3sc(-c5cncc(C(=O)N6CCOCC6)c5)cc3-4)cc21 [Compound 31, (5-(3-(1-methyl-1H-indazol-6-yl)-1,4-dihydrothieno[2′,3′:4,5]cyclopenta[1,2-c]pyrazol-6-yl)pyridin-3-yl) (morpholino)methanone] | < 1 | > 50 | 100 to 300

— patent US12448394B2, “Heterocyclic pyrazole derivatives as type III receptor tyrosine kinase inhibitors” (DEVELOPMENT CENTER FOR BIOTECHNOLOGY, priority 2019, dated 2025)
